According to EPA's CvTdb concentration-time database:

Assays:
Rat [1] = experiment: concentration in plasma after dosing; details: 2.5 min; dosed: Wyeth-14643; 2.0 mg/kg; iv; Male; Sprague-Dawley
Rat [2] = experiment: concentration in heart after dosing; details: 2 h; dosed: Bis 2-Chloroethoxy Methane; 20 mg/kg; iv; Female; F344
Rat [3] = experiment: concentration in thymus after dosing; details: 3 h; dosed: Bis 2-Chloroethoxy Methane; 20 mg/kg; iv; Female; F344
Rat [4] = experiment: concentration in plasma after dosing; details: 10 min; dosed: Bis 2-Chloroethoxy Methane; 20 mg/kg; iv; Male; F344
Rat [5] = experiment: concentration in brain after dosing; details: 6 h; dosed: Fluorotelomer alcohol 8+2; 80 mg/kg; oral; Female; Harlan Sprague Dawley
Rat [6] = experiment: concentration in plasma after dosing; details: dosed: Fluorotelomer alcohol 8+2, 24 mg/kg, oral, Male, Harlan Sprague Dawley
Rat [7] = experiment: concentration in plasma after dosing; details: 20 min; dosed: Di-n-butyl phthalate; 50 mg/kg; oral; Male; Sprague-Dawley
Rat [8] = experiment: concentration in brain after dosing; details: 1848 h; dosed: Perfluorodecanoic acid; 10 mg/kg; oral; Female; Harlan Sprague Dawley
Rat [9] = experiment: concentration in liver after dosing; details: 1848 h; dosed: Perfluorodecanoic acid; 10 mg/kg; oral; Male; Harlan Sprague Dawley
Rat [10] = experiment: concentration in kidney after dosing; details: 3360 h; dosed: Perfluorodecanoic acid; 10 mg/kg; oral; Male; Harlan Sprague Dawley
Rat [11] = experiment: concentration in plasma after dosing; details: 18 h; dosed: Primidone; 80 mg/kg; oral; Female; F344
Rat [12] = experiment: concentration in plasma after dosing; details: 0.25 h; dosed: Primidone; 80 mg/kg; oral; Female; Harlan Sprague-Dawley
Rat [13] = experiment: concentration in heart after dosing; details: 5.333 h; dosed: Thiodiglycolic Acid; 20 mg/kg; iv; Female; Harlan Sprague Dawley
Rat [14] = experiment: concentration in heart after dosing; details: 2 h; dosed: Thiodiglycolic Acid; 20 mg/kg; iv; Female; Harlan Sprague Dawley
Rat [15] = experiment: concentration in thymus after dosing; details: 4 h; dosed: Thiodiglycolic Acid; 20 mg/kg; iv; Male; Harlan Sprague Dawley
Rat [16] = experiment: concentration in plasma after dosing; details: 1 h; dosed: Thiodiglycolic Acid; 20 mg/kg; iv; Male; Harlan Sprague Dawley
Rat [17] = experiment: concentration in plasma after dosing; details: dosed: dichloroacetic acid, 40 mg/kg, oral, Female, Harlan Sprague Dawley
rat [18] = experiment: concentration in blood after dosing; details: dosed: p-tert-octylphenol, Sprague-Dawley

Cc1cccc(Nc2cc(Cl)nc(SCC(=O)O)n2)c1C
Details | concentration in plasma [µg/mL]
Rat [1] | 29.3

ClCCOCOCCCl [Bis 2-Chloroethoxy Methane]
Details | concentration in heart [ng/g] | concentration in plasma [ng/mL] | concentration in thymus [ng/g]
Rat [2] | 247 | – | –
Rat [3] | – | – | 174
Rat [4] | – | 9480 | –

OCCC(F)(F)C(F)(F)C(F)(F)C(F)(F)C(F)(F)C(F)(F)C(F)(F)C(F)(F)F [Fluorotelomer alcohol 8+2]
Details | concentration in brain [ng/g]
Rat [5] | 1310

Rat [6]
Details | concentration in plasma [ng/mL]
5 min | 6.79
9 h | 23.5

CCCCOC(=O)c1ccccc1C(=O)O [Mono-n-butyl phthalate]
Details | concentration in plasma [µg/mL]
Rat [7] | 32.4

O=C(O)C(F)(F)C(F)(F)C(F)(F)C(F)(F)C(F)(F)C(F)(F)C(F)(F)C(F)(F)C(F)(F)F [Perfluorodecanoic acid]
Details | concentration in brain [ng/g] | concentration in kidney [ng/g] | concentration in liver [ng/g]
Rat [8] | 680 | – | –
Rat [9] | – | – | 32000
Rat [10] | – | 1240 | –

CCC1(c2ccccc2)C(=O)NC(=O)NC1=O [Phenobarbital]
Details | concentration in plasma [µg/mL]
Rat [11] | 1.9
Rat [12] | 0.4

O=C(O)CSCC(=O)O [Thiodiglycolic Acid]
Details | concentration in heart [ng/g] | concentration in plasma [ng/mL] | concentration in thymus [ng/g]
Rat [13] | 321 | – | –
Rat [14] | 1640 | – | –
Rat [15] | – | – | 1490
Rat [16] | – | 1580 | –

O=C(O)C(Cl)Cl [dichloroacetic acid]
Rat [17]
Details | concentration in plasma [µg/mL]
1 h | 6.32
2 min | 0.787

CC(C)(C)CC(C)(C)c1ccc(O)cc1 [octylphenol]
concentration in blood [ng/mL], rat [18]
Details | female | male
0.1573 h, 2 mg/kg, iv | – | 159
0.1576 h, 4 mg/kg, iv | – | 317
0.1581 h, 8 mg/kg, iv | – | 942
0.1679 h, 2 mg/kg, iv | 116 | –
0.1763 h, 4 mg/kg, iv | 283 | –
0.1763 h, 8 mg/kg, iv | 852 | –
0.4805 h, 8 mg/kg, iv | – | 376
0.4823 h, 125 mg/kg, oral | – | 157
0.4883 h, 2 mg/kg, iv | – | 63.6
0.4888 h, 4 mg/kg, iv | – | 169
0.499 h, 250 mg/kg, oral | – | 244
0.5015 h, 50 mg/kg, oral | – | 63.7
0.5164 h, 2 mg/kg, iv | 67.8 | –
0.5164 h, 4 mg/kg, iv | 141 | –
0.5164 h, 8 mg/kg, iv | 430 | –
0.519 h, 125 mg/kg, oral | 159 | –
0.5202 h, 250 mg/kg, oral | 222 | –
0.5529 h, 50 mg/kg, oral | 136 | –
0.8196 h, 2 mg/kg, iv | – | 46.6
0.8247 h, 8 mg/kg, iv | – | 258
0.8286 h, 4 mg/kg, iv | – | 107
0.8355 h, 2 mg/kg, iv | 43.6 | –
0.8355 h, 4 mg/kg, iv | 89.6 | –
0.8397 h, 8 mg/kg, iv | 303 | –
0.9901 h, 250 mg/kg, oral | – | 379
0.9911 h, 125 mg/kg, oral | – | 219
0.9923 h, 50 mg/kg, oral | – | 116
1.038 h, 125 mg/kg, oral | 271 | –
1.051 h, 50 mg/kg, oral | 87.5 | –
1.147 h, 8 mg/kg, iv | – | 210
1.155 h, 2 mg/kg, iv | – | 28.8
1.16 h, 4 mg/kg, iv | – | 69.7
1.167 h, 2 mg/kg, iv | 23.8 | –
1.167 h, 4 mg/kg, iv | 71 | –
1.167 h, 8 mg/kg, iv | 229 | –
1.486 h, 2 mg/kg, iv | – | 24.8
1.487 h, 8 mg/kg, iv | – | 169
1.499 h, 8 mg/kg, iv | 170 | –
1.5 h, 4 mg/kg, iv | – | 59.3
1.503 h, 2 mg/kg, iv | 25.3 | –
1.503 h, 4 mg/kg, iv | 59 | –
1.994 h, 2 mg/kg, iv | 16.1 | –
1.994 h, 4 mg/kg, iv | 46.2 | –
1.994 h, 8 mg/kg, iv | 128 | –
2.003 h, 2 mg/kg, iv | – | 22.4
2.003 h, 4 mg/kg, iv | – | 39.3
2.004 h, 8 mg/kg, iv | – | 122
2.038 h, 125 mg/kg, oral | 235 | –
2.052 h, 50 mg/kg, oral | 109 | –
2.08 h, 250 mg/kg, oral | – | 305
2.081 h, 50 mg/kg, oral | – | 128
2.081 h, 125 mg/kg, oral | – | 171
2.989 h, 4 mg/kg, iv | – | 23.4
2.993 h, 8 mg/kg, iv | – | 72.1
2.998 h, 2 mg/kg, iv | 15.9 | –
2.998 h, 4 mg/kg, iv | 33.8 | –
3.015 h, 8 mg/kg, iv | 101 | –
3.991 h, 4 mg/kg, iv | – | 12.2
3.996 h, 8 mg/kg, iv | – | 40.2
3.997 h, 8 mg/kg, iv | 57.6 | –
4.014 h, 4 mg/kg, iv | 21.7 | –
4.016 h, 50 mg/kg, oral | 70 | –
4.022 h, 250 mg/kg, oral | 320 | –
4.03 h, 250 mg/kg, oral | – | 260
4.031 h, 125 mg/kg, oral | – | 160
4.032 h, 50 mg/kg, oral | – | 85.1
4.038 h, 125 mg/kg, oral | 268 | –
6.016 h, 50 mg/kg, oral | 69.2 | –
6.02 h, 125 mg/kg, oral | 210 | –
6.021 h, 250 mg/kg, oral | 268 | –
6.034 h, 250 mg/kg, oral | – | 192
6.07 h, 50 mg/kg, oral | – | 87
6.07 h, 125 mg/kg, oral | – | 123
7.933 h, 50 mg/kg, oral | – | 77.3
8 h, 50 mg/kg, oral | 93.2 | –
8.003 h, 125 mg/kg, oral | 205 | 95.8
8.005 h, 250 mg/kg, oral | 357 | –
8.019 h, 250 mg/kg, oral | – | 210
11.97 h, 250 mg/kg, oral | 373 | –
11.98 h, 50 mg/kg, oral | 69.7 | –
11.99 h, 50 mg/kg, oral | – | 37.2
11.99 h, 125 mg/kg, oral | – | 84.2
11.99 h, 250 mg/kg, oral | – | 157
12.02 h, 125 mg/kg, oral | 209 | –
24.01 h, 50 mg/kg, oral | 24.7 | –
24.02 h, 250 mg/kg, oral | – | 107
24.03 h, 50 mg/kg, oral | – | 7.77
24.03 h, 125 mg/kg, oral | 63.5 | –
24.04 h, 125 mg/kg, oral | – | 28.8
24.04 h, 250 mg/kg, oral | 307 | –

concentration in blood [ng/mL], rat [18], 125 mg/kg
Details | 0.5035 h | 0.5155 h | 1.054 h | 2.015 h | 4.058 h | 5.98 h | 8.091 h | 12.04 h | 24.03 h
female | – | 19 | – | – | – | – | – | – | –
male | 23.9 | – | 39.1 | 61.8 | 90.3 | 102 | 180 | 122 | 54.7
